From patent publication US10676720B2, “Combinational use of mechanical manipulation and programin derivatives to increase Oct4, Sox2, Nanog or c-Myc expression in fibroblasts” (The Chinese University of Hong Kong, priority 2014, dated 2020)
“And” between values parts separate entries of the source, which are not always exact repeats. Equal values may be shown once. Read-outs that look alike come from different tables or passages of the source.

How the values were obtained:
[1] = system: Oct4, Sox2 and Nanog expression in embryoid-like cell bodies of CD34+ mouse fibroblasts; assay: qPCR of pluripotent gene expression in embryoid-like bodies of mouse tail fibroblasts; assay type: cell-based; details: for Oct4, Sox2 and Nanog expression (qPCR, FIG. 5): embryoid-like cell bodies of CD34+ mouse fibroblasts; for Oct4, Sox2 and Nanog expression (qPCR, FIG. 5) / Oct4, Sox2 and Nanog expression (qPCR, FIG. 4): vs untreated bodies and monolayer; for Oct4, Sox2 and Nanog expression (qPCR, FIG. 4): embryoid-like cell bodies treated with 5 μm
Experimental: Materials required: Culture medium, supplemented with 10% FBS, 1% PS in DMEM (Invitrogen); Mouse ESC medium, supplemented with 1×B27 (Invitrogen), 1,000 U/mL Mouse Leukemia Inhibitory Factor (LIF) in DMEM/F12 culture medium (Invitrogen); Programin (frozen stock dissolved in DMSO); Working concentration=1-5 μM; Sterile 35 mm non-adhesive culture dish (SPL; 11035).
1. Source mouse tail fibroblasts (passage 2-6 and in log phase of growth). Trypsinize the fibroblasts using standard protocols to obtain a suspension of the cells in culture medium.
2. Seed the fibroblasts or other somatic cells onto a sterile 35 mm non-adhesive culture dish at density of 1×10^5-1×10^6 cells/cm^2 in 3 mL of culture medium.
4. Gently pipette the culture media to prevent the cells from adhering to culture dish surface. Two sessions per day, 2 min for each session, must be performed. A standard 1 mL pipette and plastic tip was used for pipetting the cultures. The pipetting has to done very slowly (approximately 0.5-1 mL/second generates sufficient force to detach cells from non-adhesive culture dish surface).
1. The cells would start to aggregate into embryoid-like bodies after day 1. These bodies will grow in numbers and size during the period of culture.
2. Gently pipette the culture media to prevent the embryoid-like cell bodies from attaching on culture dish surface.
3. Add 1 mL of fresh culture medium.
1. Collect cell suspension and pellet cells by centrifugation at 800 rpm for 5 min. […] Wash cell once with mouse ESC medium and Programin (1-5 μM) or programin derivatives.
2. Pellet the embryoid-like bodies again and re-suspend them in 3 mL mouse ESC medium and Programin or derivatives thereof.
3. Seed the embryoid-like cell bodies onto a sterile 35 mm non-adhesive culture dish.
4. Perform daily pipetting twice in a day to prevent the embryoid-like cell bodies from sticking to the culture dish.
5. Add 1 mL of fresh mouse ESC medium on day 5 (day 2 post-Programin treatment).
2. Harvest the embryoid-like cell bodies for qPCR analysis to validate expression of pluripotent genes: Oct4, Sox2 and Nanog expression. In addition, expression of other key stem cell-associated genes.

[2] = system: Oct4-EGFP expression in CD34+ fibroblasts from the tail of an Oct4-EGFP transgenic mouse; details: embryoid-like cell bodies, 5 μM, 24, 48 and 69 hours
From the text: 1. Harvest the embryoid-like cell bodies for PI and Hoechst staining for confocal analysis. The presence of green fluorescence and Hoechst staining in cells indicate the presence of live PIP cells expressing Oct4-EGFP.
CD34^+ fibroblasts harvested from the tail of an Oct4-EGFP transgenic mouse were mechanically pipetted and maintained on non-adhesive culture plates so that the cells became aggregated to form embryoid-like bodies (FIG. 3A). The embryoid-like bodies in this study were stained with PI dye to determine the presence of dead cells (red arrows) and Hoechst dye for the presence of live cells (blue arrows) (FIGS. 3A-3D).

[3] = system: CD34+ fibroblasts grown on adhesive culture dishes; details: 5 μM for 3 days
From the text: Tail fibroblasts extracted from the tail of Oct4-EGFP transgenic mice and stained with CD34 (FIG. 2). The cells were sorted by flow cytometry for only those expressing the surface marker CD34.

[4] = system: Oct4, Sox2, KLF4, c-Myc and Nanog expression in HUCPV cells; details: HUCPV embryoid-like bodies
Experimental: Materials required: HUCPV medium, consisting of 15% ESQ-FBS (Invitrogen) and 1% PS in MEM/F12 (Invitrogen), Essential 6 (Invitrogen) supplemented with 100 ng/mL basic fibroblast growth factor (bFGF) (Invitrogen), Programin or derivatives thereof (frozen stock dissolved in DMSO); Working concentration=1-5 μM; Sterile non-adhesive 24-well culture plate (SPL; 32024).
Primary human umbilical cord peri-vascular (HUCPV) cells were maintained in HUCPV culture medium and passaged by trypsinization. Only HUCPV cells below cell passage 6 were used.
HUCPV cultures are trypsinize and dissociate into single cells.
The dissociated HUCPV cells are re-suspend as 3×10^5 cells in 600 μL of HUCPV medium and seeded into each well of a non-adhesive 24-well culture plate.
The cells are incubated at 37° C. and 5% CO2 inside a cell incubator.
On following day, until the end of experiment, the cells were pipetted twice a day to prevent cells attaching onto culture plates which caused the HUCPV cells to aggregate into embryoid-like cell bodies.
200 μL of fresh HUCPV medium were added to the cultures, every 2 days. […]
Thirty hours after Programin treatment, the Programin treated embryoid-like cell bodies were harvested for qPCR analysis to validate expression of the pluripotent genes: Oct4, Sox2 and Nanog. Other key stem cells-associate genes were also analyzed.

[5] = system: Programin-treated embryoid-like cell bodies
Experimental: Programin-treated embryoid-like cell bodies (1×10^6 cells/10 cm^2) were maintained as a suspension culture in DMEM/F12, 1000 U/mL LIF and 1×B27 on non-adhesive culture dishes for 4 days. The embryoid-like cell bodies were then transferred to culture dishes coated with 0.1% gelatin (FIG. 9A). 10 μM Wnt agonist (Cat #681665, Calbiochem) was added to the culture medium (DMEM/F12, 1000U/mL LIF and 1×B27).

[6] = system: Oct4, Nanog, Sox2, c-Myc and KLF4 expression in human skin fibroblasts; details: 5 μM, 4 days
Experimental: Materials required: Fibroblast medium, supplemented with 15% FBS, 1% non-essential amino acids, 1% PS in Eagle's MEM medium (Invitrogen), human ESC medium, supplemented with 20% knockout serum replacement (Invitrogen), 2 mM L-glutamine, 0.1 mM non-essential amino acids, 0.1 mM mercaptoethanol, 10 ng/mL fibroblast growth factor-basic (bFGF), 1% PS in DMEM/F12 (Invitrogen), Programin or derivatives thereof (frozen stock dissolved in DMSO); Working concentration=5 μM, and sterile 35 mm non-adhesive culture dish (SPL; 11035).
Primary human skin fibroblasts were cultured in fibroblast medium and passaged by trypsinization. Passage 5 fibroblasts were used for experimentation.
After dissociating the cultures into single cells with trypsin, 2×10^6 cells were resuspended in 3 mL fibroblast medium in non-adhesive 35 mm dish and maintained in 37° C. incubator with 5% CO2.
Several hours later, aggregates were formed. Gently breakup excessively large aggregates by pipetting.
The next day, compact aggregates were formed. Again gentry breakup aggregates into smaller size (100-120 μm diameter) by pipetting.
Three days after cell aggregate/embryoid-like cell body formation, change the medium to human ESC medium supplemented with 5 μM Programin or derivatives thereof.
Replenish medium with fresh Programin or derivatives thereof 2 days after. […]

[7] = system: Programin treated embryoid-like cell bodies; details: treated embryoid-like bodies on 0.1% gelatin, B27 medium, after 3 days, more obvious after 7 days
From the text: Programin treated embryoid-like cell bodies (1×10^6 cells/10 cm^2) were maintained as a suspension culture in DMEM/F12, 1000U/mL LIF and 1×B27 on non-adhesive culture dishes for 4 days. The embryoid-like cell bodies were then transferred to culture dishes coated with 0.1% gelatin (FIG. 10A).

[8] = system: Oct4, Sox2, KLF4, c-Myc and Nanog expression in HUCPV cells; details: HUCPV cells as a monolayer, 0-5 μM for 30 hours

For Oc1ncnc2[nH]ncc12 [Derivative 237], the “Oct4, Sox2 and Nanog expression (qPCR, FIG. 5)” value (shortened to “Oct4 … (qPCR, FIG. 5)”) [1] was “significantly increased”.
Cc1cc(C)n(-c2nc(Cl)nc3[nH]cnc23)n1 [Derivative 959] was tested, and the “Oct4 … (qPCR, FIG. 5)” value [1] was “significantly increased”.
With Nc1nc2nc[nH]c2c(=S)[nH]1 [Derivative 400] the “Oct4 … (qPCR, FIG. 5)” value [1] was “significantly increased”.
In the case of c1nc2nc(Nc3ccc(N4CCOCC4)cc3)nc(NC3CCCCC3)c2[nH]1 [programin, 2-(4-Morpholinoanilino)-6-cyclohexylamino-purine], the “Oct4-EGFP expression (confocal microscope)” value [2] was “detectable”, the “Oct4-EGFP expression (confocal microscope)” value ([2]; listed as Programin) was “expressed Oct4-EGFP” and the Oct4 expression [3] was “did not express Oct4”. The cell survival [3] was “died”, the “Oct4, Sox2, KLF4, c-Myc and Nanog expression (qPCR)” value ([4]; 1-5 μM for 30 hours, vs untreated embryoid-like body controls (0 μM)) was “significantly enhanced” and the “concentration that induced the highest level of Oct4, Sox2, Klf4 and Nanog” value ([4]; 30 hours, 1-5 μM tested) was 4 µM. The “fate of treated cells that were not aggregated” value ([5]; following exposure to the Wnt agonist) was “underwent cell death”, the “formation of bone-like nodules” value ([5]; treated embryoid-like bodies on 0.1% gelatin with 10 μM Wnt agonist, after 2-3 days) was “Bone-like nodules were evident” and the “Alizen Red s staining of the nodules” value ([5]; treated embryoid-like bodies with 10 μM Wnt agonist) was “osteocytes”. The “expression of Oct4, Nanog, Sox2, c-Myc and KLF4 (qPCR)” value ([6]; human skin fibroblast embryoid-like bodies, vs vehicle and monolayer) was “higher levels”, the “expression of pluripotency-associated genes Oct4, Sox2, Nanog, KLF4 and c-Myc” value ([6]; human skin fibroblasts in a monolayer) was “not in a monolayer” and the formation of neurons [7] was “Neurons were evident”. The “Oct4, Sox2, KLF4, c-Myc and Nanog expression (qPCR)” value [8] was “did not activate”, the “increase in Oct4, Sox2 and Nanog expression” value ([1]; aggregates/embryoid-like bodies of fibroblasts, compared to controls (unaggregated, untreated cells)) was 25-200 fold and 20-200 fold and the “increase in expression of E-cadherin” value ([1]; compared to that of the initial fibroblast) was 5 fold. The “increase in Oct4, Sox2 and Nanog expression” value ([1]; embryoid-like cell bodies exposed to 2-5 μM for 30 hours, compared to an untreated control fibroblast) was 25-200 fold, the “Oct4 … (qPCR, FIG. 5)” value [1] was “higher” and the “Oct4, Sox2 and Nanog expression (qPCR, FIG. 4)” value [1] was “highest”. For the same compound, the “Oct4, Sox2 and Nanog expression (qPCR, FIG. 4)” value ([1]; listed as Programin) was “significantly enhanced” and the reprogramming efficiency ([1]; mouse somatic cells, takes 7 days to accomplish) was “approximately 20%”.
For Clc1nc(N2CCN(c3ccccc3)CC2)c2[nH]cnc2n1 [Derivative 957], the “Oct4 … (qPCR, FIG. 5)” value [1] was “significantly increased”.
For Clc1nc(-n2cccn2)c2nc[nH]c2n1 [Derivative 958], the “Oct4 … (qPCR, FIG. 5)” value [1] was “significantly increased”.
With Nc1ncnc2nc[nH]c12 [Derivative 668] the “Oct4 … (qPCR, FIG. 5)” value [1] was “significantly increased”.
With S=c1[nH]cnc2nc[nH]c12 [Derivative 594] the “Oct4 … (qPCR, FIG. 5)” value [1] was “significantly increased”.
